Experimental findings from PubChem BioAssay (NCI) are described below.

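Where inhibition never reached the appropriate level, the endpoint shown equals the highest concentration tested. Otherwise, values were interpolated linearly from a five-concentration, 48-hour dose response in 96-well plates. GI50 marks 50% less growth. The concentration for full growth arrest is given as TGI.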

This experiment deals with SN12K1 renal. The experiment can be described thus: inhibition of tumour cell growth, NCI panel, 48 h.

Regarding `CC[C@H]1CN2CCc3cc(OC)c(OC)cc3[C@@H]2C[C@@H]1C[C@H]1NCCc2cc(O)c(OC)cc21`, the GI50 is 25 nM and the TGI turned out to be 191 nM.
